Assay results taken from patent publication US10968215B2 (SHANGHAI HAIHE PHARMACEUTICAL CO., LTD., priority 2016, dated 2021).
Like-named read-outs stand apart in the source and are kept apart here.

Target: PRC2 complex (EZH2 Y641F/EED/SUZ12/RbAp48/AEBP2) (Homo sapiens (Human), UniProt Q15910, Y641F)
Test: Activity of a compound to PRC2 complex (EZH2 Y641F), HTRF
[1] = read-out: IC50 (EZH2_Y641F), EZH2 Y641F PRC2 complex, HTRF, class symbols

PRC2 complex (EZH2 Y641F/EED/SUZ12/RbAp48/AEBP2), sequence (Q15910 whole entry Y641F): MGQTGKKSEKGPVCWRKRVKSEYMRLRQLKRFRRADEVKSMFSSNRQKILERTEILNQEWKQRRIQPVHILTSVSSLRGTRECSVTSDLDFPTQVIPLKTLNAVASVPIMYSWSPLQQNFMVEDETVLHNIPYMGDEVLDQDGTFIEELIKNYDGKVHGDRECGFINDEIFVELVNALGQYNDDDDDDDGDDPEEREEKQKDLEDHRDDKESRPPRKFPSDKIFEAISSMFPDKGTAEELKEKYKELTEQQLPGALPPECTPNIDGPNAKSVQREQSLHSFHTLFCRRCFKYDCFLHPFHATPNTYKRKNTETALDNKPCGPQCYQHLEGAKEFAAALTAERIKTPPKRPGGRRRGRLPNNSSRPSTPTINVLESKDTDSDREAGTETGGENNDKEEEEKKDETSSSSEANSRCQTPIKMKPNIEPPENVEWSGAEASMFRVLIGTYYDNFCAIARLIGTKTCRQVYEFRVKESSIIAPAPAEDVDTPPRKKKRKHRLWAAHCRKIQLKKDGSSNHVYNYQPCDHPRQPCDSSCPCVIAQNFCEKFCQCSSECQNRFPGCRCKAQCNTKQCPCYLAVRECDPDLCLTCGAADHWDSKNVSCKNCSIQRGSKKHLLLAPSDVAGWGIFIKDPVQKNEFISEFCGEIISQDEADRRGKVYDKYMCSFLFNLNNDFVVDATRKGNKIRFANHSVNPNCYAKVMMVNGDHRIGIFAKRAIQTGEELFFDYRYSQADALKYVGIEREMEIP
PRC2 complex (EZH2 Y641F/EED/SUZ12/RbAp48/AEBP2), sequence (O75530 whole entry partner): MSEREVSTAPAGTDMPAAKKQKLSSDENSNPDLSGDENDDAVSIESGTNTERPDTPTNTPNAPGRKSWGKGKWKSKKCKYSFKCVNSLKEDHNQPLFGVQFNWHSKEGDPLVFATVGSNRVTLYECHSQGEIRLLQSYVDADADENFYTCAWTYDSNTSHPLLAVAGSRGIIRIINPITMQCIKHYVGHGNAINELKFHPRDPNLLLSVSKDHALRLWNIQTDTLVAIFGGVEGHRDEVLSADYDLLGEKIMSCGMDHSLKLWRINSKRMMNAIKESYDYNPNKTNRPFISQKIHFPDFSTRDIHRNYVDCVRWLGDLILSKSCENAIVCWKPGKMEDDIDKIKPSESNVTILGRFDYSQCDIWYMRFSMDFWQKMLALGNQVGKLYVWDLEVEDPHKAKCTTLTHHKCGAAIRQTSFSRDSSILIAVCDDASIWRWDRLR
PRC2 complex (EZH2 Y641F/EED/SUZ12/RbAp48/AEBP2), sequence (Q15022 whole entry partner): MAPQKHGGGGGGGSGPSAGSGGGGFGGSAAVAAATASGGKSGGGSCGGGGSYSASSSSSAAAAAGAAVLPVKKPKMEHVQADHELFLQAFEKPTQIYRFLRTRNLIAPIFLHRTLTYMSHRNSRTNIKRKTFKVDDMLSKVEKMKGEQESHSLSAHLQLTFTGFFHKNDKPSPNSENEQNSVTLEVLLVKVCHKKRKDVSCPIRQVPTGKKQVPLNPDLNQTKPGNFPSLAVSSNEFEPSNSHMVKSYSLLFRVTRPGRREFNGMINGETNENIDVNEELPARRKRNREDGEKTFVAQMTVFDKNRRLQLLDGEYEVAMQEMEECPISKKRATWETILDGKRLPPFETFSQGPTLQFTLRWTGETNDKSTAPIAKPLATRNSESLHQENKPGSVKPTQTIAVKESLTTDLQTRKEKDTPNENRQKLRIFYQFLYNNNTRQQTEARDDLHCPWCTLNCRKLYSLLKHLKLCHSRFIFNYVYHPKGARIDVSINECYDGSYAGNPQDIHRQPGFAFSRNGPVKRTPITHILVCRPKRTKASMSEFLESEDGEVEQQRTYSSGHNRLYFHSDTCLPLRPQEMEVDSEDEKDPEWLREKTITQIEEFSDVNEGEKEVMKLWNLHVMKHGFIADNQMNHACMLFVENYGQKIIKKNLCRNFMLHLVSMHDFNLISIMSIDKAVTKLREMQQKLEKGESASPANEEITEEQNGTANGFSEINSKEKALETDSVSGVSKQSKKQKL
PRC2 complex (EZH2 Y641F/EED/SUZ12/RbAp48/AEBP2), sequence (Q09028 whole entry partner): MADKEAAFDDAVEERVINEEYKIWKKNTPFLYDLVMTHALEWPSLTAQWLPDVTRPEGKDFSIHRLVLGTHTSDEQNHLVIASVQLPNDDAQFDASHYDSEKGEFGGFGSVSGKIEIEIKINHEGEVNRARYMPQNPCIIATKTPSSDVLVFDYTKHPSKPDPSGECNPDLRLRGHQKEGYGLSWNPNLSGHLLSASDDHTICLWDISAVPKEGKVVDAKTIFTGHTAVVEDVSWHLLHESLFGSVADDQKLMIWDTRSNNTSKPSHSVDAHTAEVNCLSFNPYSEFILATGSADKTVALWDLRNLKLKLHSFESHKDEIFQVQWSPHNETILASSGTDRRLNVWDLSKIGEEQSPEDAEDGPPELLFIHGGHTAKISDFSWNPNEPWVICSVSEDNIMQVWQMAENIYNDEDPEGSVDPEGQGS
PRC2 complex (EZH2 Y641F/EED/SUZ12/RbAp48/AEBP2), sequence (Q6ZN18 whole entry partner): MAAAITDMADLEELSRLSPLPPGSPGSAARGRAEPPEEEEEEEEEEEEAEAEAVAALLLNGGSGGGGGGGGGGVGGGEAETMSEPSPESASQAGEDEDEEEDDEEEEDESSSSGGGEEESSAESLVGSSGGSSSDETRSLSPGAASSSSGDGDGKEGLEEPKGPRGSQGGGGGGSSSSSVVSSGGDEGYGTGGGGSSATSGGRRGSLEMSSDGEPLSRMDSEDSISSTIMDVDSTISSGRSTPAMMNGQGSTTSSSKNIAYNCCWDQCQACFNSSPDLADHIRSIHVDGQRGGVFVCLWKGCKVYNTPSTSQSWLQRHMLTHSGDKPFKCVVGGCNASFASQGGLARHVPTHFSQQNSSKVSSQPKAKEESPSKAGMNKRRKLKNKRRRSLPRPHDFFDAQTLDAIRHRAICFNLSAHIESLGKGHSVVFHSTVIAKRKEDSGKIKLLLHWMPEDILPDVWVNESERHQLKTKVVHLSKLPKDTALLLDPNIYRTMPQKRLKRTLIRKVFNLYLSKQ

IC50 [1] | Compound | also measured
< 0.1 µM | COc1cc(C)[nH]c(=O)c1CNC(=O)c1cc2c(-c3c(C)noc3C)ccn2c(C(C)N2CCN(CC(F)(F)F)CC2)c1C (stereo not drawn) [Compound 161, 1-(3,5-dimethylisoxazol-4-yl)-N-((4-methoxy-6-methyl-2-oxo-1,2-dihydropyridin-3-yl)methyl)-6-methyl-5-(1-(4-(2,2,2-trifluoroethyl)piperazin-1-yl)ethyl)indolizine-7-carboxamide] | 
< 0.1 µM | CNc1ccc(-c2ccn3c(C(C)N4CCN(CC(F)(F)F)CC4)c(C)c(C(=O)NCc4c(OC)cc(C)[nH]c4=O)cc23)cn1 (stereo not drawn) [Compound 163, N-((4-methoxy-6-methyl-2-oxo-1,2-dihydropyridin-3-yl)methyl)-6-methyl-1-(6-(methylamino)pyridin-3-yl)-5-(1-(4-(2,2,2-trifluoroethyl)piperazin-1-yl)ethyl)indolizine-7-carboxamide] | 
< 0.1 µM | Cc1cc(C)c(CNC(=O)c2cc3cc(-c4cncn4C)cn3c(C(C)N3CCC(N(C)C)CC3)c2C)c(=O)[nH]1 (stereo not drawn) [Example 134, N-((4,6-dimethyl-2-oxo-1,2-dihydropyridin-3-yl)methyl)-5-(1-(4-(dimethylamino)piperidin-1-yl)ethyl)-6-methyl-2-(1-methyl-1H-imidazol-5-yl)indolizine-7-carboxamide] | 
< 0.1 µM | N-((4,6-dimethyl-2-oxo-1,2-dihydropyridin-3-yl)methyl)-2-(3-((dimethylamino)methyl)phen yl))-6-methyl-5-(1-morpholineethyl)indolizine-7-amide [Example 74] | 
< 0.1 µM | COc1cc(C)[nH]c(=O)c1CNC(=O)c1cc2c(-c3ccc(C)nn3)ccn2c([C@H](C)N2CCN(CC(F)(F)F)CC2)c1C (single isomer, unassigned) [Compound 201, (S)—N-((4-methoxy-6-methyl-2-oxo-1,2-dihydropyridin-3-yl)methyl)-6-methyl-1-(6-methylpyridazin-3-yl)-5-(1-(4-(2,2,2-trifluoroethyl)piperazin-1-yl)ethyl)indolizine-7-formamide or (R)—N-((4-methoxy-6-methyl-2-oxo-1,2-dihydropyridin-3-yl)methyl)-6-methyl-1-(6-methylpyridazin-3-yl)-5-(1-(4-(2,2,2-trifluoroethyl)piperazin-1-yl)ethyl)indolizine-7-formamide] | 
0.1 to 1 µM | CCN(c1c(C)c(C(=O)NCc2c(C)cc(C)[nH]c2=O)cc2cc(-c3ccnn3C)cn12)C1CCOCC1 [Example 64, N-((4,6-dimethyl-2-oxo-1,2-dihydropyridin-3-yl)methyl)-5-(ethyl(tetrahydro-2H-pyran-4-yl)amino)-6-methyl-2-(4-morpholinephenyl)indolizine-7-carboxamide] | 
0.1 to 1 µM | COc1cc(-c2ccn3c([C@H](C)N4CCN(CC(F)(F)F)CC4)c(C)c(C(=O)NCc4c(OC)cc(C)[nH]c4=O)cc23)ccn1 (single isomer, unassigned) [Compound 195, (S)—N-((4-methoxy-6-methyl-2-oxo-1,2-dihydropyridin-3-yl)methyl)-1-(2-methoxypyridin-4-yl)-6-methyl-5-(1-(4-(2,2,2-trifluoroethyl)piperazin-1-yl)ethyl)indolizine-7-carboxamide or (R)—N-((4-methoxy-6-methyl-2-oxo-1,2-dihydropyridin-3-yl)methyl)-1-(2-methoxypyridin-4-yl)-6-methyl-5-(1-(4-(2,2,2-trifluoroethyl)piperazin-1-yl)ethyl)indolizine-7-carboxamide] | 
0.1 to 1 µM | Cc1cc(C)c(CNC(=O)c2cc3cccn3c(C(C)OCc3ccccc3)c2C)c(=O)[nH]1 (stereo not drawn) [Example 9, 5-(1-(benzyloxy)ethyl)-N-((4,6-dimethyl-2-oxo-1,2-dihydropyridin-3-yl)methyl)-6-methylindolizine-7-carboxamide] | 
< 0.1 µM | COc1cc(C)[nH]c(=O)c1CNC(=O)c1cc2c(-c3ccnc(Cl)c3)ccn2c([C@H](C)N2CCN(CC(F)(F)F)CC2)c1C (single isomer, unassigned) [Compound 169, (S)-1-(2-chloropyridin-4-yl)-N-((4-methoxy-6-methyl-2-oxo-1,2-dihydropyridine-3-yl)methyl)-6-methyl-5-(1-(4-(2,2,2-trifluoroethyl)piperazin-1-yl)ethyl)indolizine-7-carboxamide or (R) 1-(2-chloropyridin-4-yl)-N-((4-methoxy-6-methyl-2-oxo-1,2-dihydropyridine-3-yl)methyl)-6-methyl-5-(1-(4-(2,2,2-trifluoroethyl)piperazin-1-yl)ethyl)indolizine-7-carboxamide] | 
< 0.1 µM | Cc1cc(C)c(CNC(=O)c2cc3c(-c4ccc(N)nc4)ccn3c([C@H](C)N3CCN(CC(F)(F)F)CC3)c2C)c(=O)[nH]1 (single isomer, unassigned) [Compound 160, (S)-1-(6-aminopyridin-3-yl)-N-((4,6-dimethyl-2-oxo-1,2-dihydropyridin-3-yl)methyl)-6-methyl-5-(1-(4-(2,2,2-trifluoroethyl)piperazin-1-yl)ethyl)indolizine-7-carboxamide or (R) 1-(6-aminopyridin-3-yl)-N-((4,6-dimethyl-2-oxo-1,2-dihydropyridin-3-yl)methyl)-6-methyl-5-(1-(4-(2,2,2-trifluoroethyl)piperazin-1-yl)ethyl)indolizine-7-carboxamide] | 

More lines, now with the values behind:

Compound | IC50 [1] | also measured
CCN(c1c(C)c(C(=O)NCc2c(C)cc(C)[nH]c2=O)cc2cc(-c3ccccc3)cn12)C1CCOCC1 [Example 63] | 0.1 to 1 µM | 
COc1cc(C)[nH]c(=O)c1CNC(=O)c1cc2cc(-c3cncn3C)cn2c(C(C)N2CCN(CC(F)(F)F)CC2)c1C (stereo not drawn) [Example 137, N-((4-Methoxy-6-methyl-2-oxo-1,2-dihydropyridin-3-yl)methyl)-6-methyl-2-(1-methyl-1H-imidazol-5-yl)-5-(1-(4-(2,2,2-trifluoroethyl)piperazin-1-yl)ethyl)indolizine-7-carboxamide] |  | IC50: < 0.1 µM
COc1cc(C)[nH]c(=O)c1CNC(=O)c1cc2c(-c3ccn[nH]3)ccn2c(C(C)N2CCOCC2)c1C (stereo not drawn) [Compound 153, N-((4-Methoxy-6-methyl-2-oxo-1,2-dihydropyridin-3-yl)methyl)-6-methyl-5-(1-morpholinylethyl)-1-(1H-pyrazol-5-yl)indolizine-7-carboxamide] |  | IC50 (read-out: IC50 (EZH2_Y641F), EZH2 Y641F PRC2 complex, HTRF, numeric values): 0.00215 µM
Cc1cc(C)c(CNC(=O)c2cc3cc(-c4nccs4)cn3c(C(C)N3CCOCC3)c2C)c(=O)[nH]1 (stereo not drawn) [Example 50, N-((4,6-dimethyl-2-oxo-1,2-dihydropyridin-3-yl)methyl)-6-methyl-5-(1-morphinolinylethyl)-2-(thiazol-2-yl)indolizine-7-carboxamide] | < 0.1 µM | 
COc1ccc(-c2cc3cc(C(=O)NCc4c(C)cc(C)[nH]c4=O)c(C)c(C(C)N4CCOCC4)n3c2)cc1 (stereo not drawn) [Example 97, N-((4,6-dimethyl-2-oxo-1,2-dihydropyridin-3-yl)methyl)-2-(4-methoxyphenyl)-6-methyl-5-(1-morpholinoethyl)indolizine-7-carboxamide] |  | IC50: 0.1 to 1 µM
COc1cccc(-c2cc3cc(C(=O)NCc4c(C)cc(C)[nH]c4=O)c(C)c(C(C)N4CCOCC4)n3c2)c1 (stereo not drawn) [Example 95] | < 0.1 µM | 
Cc1cc(C)c(CNC(=O)c2cc3cccn3c(C(C)Oc3ccc(N(C)C)cc3)c2C)c(=O)[nH]1 (stereo not drawn) [Example 22] | 1 to 10 µM | 
Cc1cc(C)c(CNC(=O)c2cc3c(Br)ccn3c(C(C)N3CCOCC3)c2C)c(=O)[nH]1 (stereo not drawn) [Example 54, 1-bromo-N-((4,6-dimethyl-2-oxo-1,2-dihydropyridin-3-yl)methyl)-6-methyl-5-(1-morpholinylethyl)indolizine-7-carboxamide] | < 0.1 µM | 
Cc1cc(C)c(CNC(=O)c2cc3cc(C(=O)N4CCOCC4)cn3c(C(C)N3CCOCC3)c2C)c(=O)[nH]1 (stereo not drawn) [Example 126, N-((4,6-dimethyl-2-oxo-1,2-dihydropyridin-3-yl)methyl)-6-methyl-2-(morpholin-4-carbonyl)-5-(1-morpholinoethyl)indolizine-7-carboxamide] | < 0.1 µM | 
Cc1cc(C)c(CNC(=O)c2cc3cc(-c4cc5c(s4)CCNC5)cn3c(C(C)N3CCOCC3)c2C)c(=O)[nH]1 (stereo not drawn) [Example 114, N-((4,6-dimethyl-2-oxo-1,2-dihydropyridin-3-yl)methyl)-6-methyl-5-(1-morpholinoethyl)-2-(4,5,6,7-tetrahydro[2,3-c]pyridin-2-yl)indolizine-7-carboxamide] | 0.1 to 1 µM | 
COc1cc(C)[nH]c(=O)c1CNC(=O)c1cc2c(-c3ccn[nH]3)ccn2c(C(C)OCc2nccs2)c1C (stereo not drawn) [Compound 191, N-((4-methoxy-6-methyl-2-oxo-1,2-dihydropyridin-3-yl)methyl)-6-methyl-1-(1H-pyrazol-5-yl)-5-(1-(thiazol-2-ylmethoxy)ethyl)indolizine-7-carboxamide] |  | IC50: < 0.1 µM
COc1ccc(F)c(-c2cc3cc(C(=O)NCc4c(C)cc(C)[nH]c4=O)c(C)c(C(C)N4CCOCC4)n3c2)c1 (stereo not drawn) [Example 124, N-((4,6-dimethyl-2-oxo-1,2-dihydropyridin-3-yl)methyl)-2-(2-fluoro-5-methoxyphenyl)-6-methyl-5-(1-morpholinoethyl)indolizine-7-carboxamide] | 0.1 to 1 µM | 
Cc1cc(C)c(CNC(=O)c2cc3c(-c4cccc(N5CCOCC5)c4)ccn3c(C(C)N3CCOCC3)c2C)c(=O)[nH]1 (stereo not drawn) [Example 116, N-((4,6-dimethyl-2-oxo-1,2-dihydropyridin-3-yl)methyl)-1-(3-(dimethylamine)phenyl)-6-methyl-5-(1-morpholinylethyl)indolizine-7-carboxamide] | < 0.1 µM | 
COc1cc(C)[nH]c(=O)c1CNC(=O)c1cc2cc(-c3nccn3C)cn2c(C(C)N2CCN(CC(F)(F)F)CC2)c1C (stereo not drawn) [Example 109, N-((4-methoxy-6-methyl-2-oxo-1,2-dihydropyridin-3-yl)methyl)-6-methyl-2-(1-methyl-1H-imidazol-2-yl)-5-(1-(4-(2,2,2-trifluoroethyl)piperazin-1-yl)ethyl)indolizine-7-carboxamide] |  | IC50: 0.1 to 1 µM
